In article PMC4304192, “KUD773, a phenylthiazole derivative, displays anticancer activity in human hormone-refractory prostate cancers through inhibition of tubulin polymerization and anti-Aurora A activity” (Journal of Biomedical Science, 2015):

Target: T1, Aurora A kinase (Homo sapiens, UniProt O14965)
T1 construct: gene AURKA
T1 sequence (O14965 1-403): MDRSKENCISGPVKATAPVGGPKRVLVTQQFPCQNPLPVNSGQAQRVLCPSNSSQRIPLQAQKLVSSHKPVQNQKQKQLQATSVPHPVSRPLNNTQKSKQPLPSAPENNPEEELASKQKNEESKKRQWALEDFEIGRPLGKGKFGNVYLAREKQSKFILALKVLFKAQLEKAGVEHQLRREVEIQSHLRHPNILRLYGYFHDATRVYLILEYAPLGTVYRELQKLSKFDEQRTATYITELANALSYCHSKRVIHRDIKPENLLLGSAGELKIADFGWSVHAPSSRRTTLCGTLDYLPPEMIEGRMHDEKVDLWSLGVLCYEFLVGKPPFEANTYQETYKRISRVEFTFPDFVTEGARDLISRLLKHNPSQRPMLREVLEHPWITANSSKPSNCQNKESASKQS
Test: Aurora A luminescent kinase assay (Kinase-Glo Plus, […] ATP, LRRWSLG peptide substrate)
Type: biochemical

IC50: 30 µM
SMILES: FC(F)(F)c1cccc(-c2csc(-n3ccnc3)n2)c1 [KUD773, 2-(1H-imidazol-1-yl)-4-(3-(trifluoromethyl)phenyl)thiazole]
